For 16 compounds, IC50 results are on record in US10919869B2, “Thiazole derivative and applications” (EAST CHINA UNIVERSITY OF SCIENCE AND TECHNOLOGY, priority 2016, dated 2021).

The term IC50 denotes the concentration that inhibits the measured activity by half.

The structures appear in SMILES notation. Where only a bound is given, the exact number is not on record here.

The first experiment deals with hsDHODH (Homo sapiens (Human), UniProt Q02127). In words: Activity test at enzyme level: DHODH inhibition, DCIP absorbance at 600 nm. Format: biochemical. Conditions: pharmaceutically acceptable esters (prodrugs of A and B series), hsDHODH enzyme test; read-out: IC50. How it is done: Culture and Purification of hsDHODH Protein
Chain of hsDHODH (Q02127 whole entry): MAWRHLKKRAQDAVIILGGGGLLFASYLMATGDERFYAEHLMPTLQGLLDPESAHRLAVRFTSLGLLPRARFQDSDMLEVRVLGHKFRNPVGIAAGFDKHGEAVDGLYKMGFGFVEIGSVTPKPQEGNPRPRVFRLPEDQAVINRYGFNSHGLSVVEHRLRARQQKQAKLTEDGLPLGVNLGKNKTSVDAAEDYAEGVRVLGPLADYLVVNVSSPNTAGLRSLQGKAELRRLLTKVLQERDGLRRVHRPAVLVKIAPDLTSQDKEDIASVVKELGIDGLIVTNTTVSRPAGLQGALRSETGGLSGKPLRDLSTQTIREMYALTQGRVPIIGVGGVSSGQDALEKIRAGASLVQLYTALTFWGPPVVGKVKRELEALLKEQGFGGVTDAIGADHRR
The correctly sequenced recombinant plasmid pET-19b-DHODH was transformed into competent E. coli BL21 (DE3), and cultured on LB plate containing ampicillin. Colonies were randomly selected, inoculated into LB medium containing […], and incubate overnight at 37° C., 230 rpm. The cells were inoculated at a ratio of 1:200 in 500 mL of LB medium containing […] and expanded at 37° C., 230 rpm. When the OD value of the cells reached 0.8-1, IPTG was added into the medium to a final concentration of IPDG of 0.5 mM, and expression was induced overnight at 25° C. The induced cells were collected by centrifugation at […], 4° C., washed with deionized water, and centrifuged again to collect the bacterial pellet, which was stored at −80° C.
Purification of protein: cells were re-suspended in lysis liquid containing 50 mM HEPES (pH 8.0), 0.15 M NaCl, 10 mM imidazole, 10% glycerol, 0.1% Triton X-100, and a small amount of soy protease inhibitor added. After re-suspended and mixed homogeneously, cells were ultrasonically disrupted. The disruption solution was centrifuged for 30 min, and the supernatant and precipitate were taken for protein electrophoresis to determine the form of protein. The supernatant was loaded onto a Ni-NTA column, and the pass-through liquid was collected, and then the resin was washed for 3-4 times with a lysis liquid containing 20 mM imidazole, and finally eluted with a lysis liquid containing 300 mM imidazole. After elution, protein solution was collected. 10 μL of the above protein sample was taken for SDS-PAGE electrophoresis to determine the content of target protein. Finally, the eluted protein solution is dialyzed in the dialysis liquid to remove imidazole, thereby obtaining a pure protein.
Method for Testing Activities of Compounds at Enzyme Level
Principles of activity test at enzyme level: firstly, dihydroorotate (DHO) is oxidatively dehydrogenated by DHODH to form orotic acid (Orotate, OA), accompanied by reduction of Flavin mononucleotide (FMN) into reduced flavin mononucleotide (FMNH2) by accepting 2H+ and 2e−, then coenzyme Q (CoQ) as hydrogen acceptor accepting electron and proton from FMNH2 is reduced into reduced coenzyme Q (CoQH2), reduced coenzyme Q transfers electrons to a chromogenic substrate, […] (DCIP), and finally DCIP was reduced. […] The degree to which the substrate DHO is oxidized can be judged based on the degree of decrease in absorbance. The degree of oxidation of the substrate DHO per unit time is the initial rate of the enzymatic reaction. Upon addition of a inhibitor, the initial rate of the enzymatic reaction is reduced.
Substrate DHO was added to start the reaction with a DHO final concentration of 500 μM. The absorbance was read at 600 nm using a BioTek microplate reader and read every 30 s for 6 min. […] For calculating IC50 of a compound, Origin 8.0 was used to test the inhibition rate at least 8 concentrations.
Turning to `CCOC(=O)c1ccccc1/C=N/Nc1nc(-c2ccccc2Cl)cs1` [Compound A1, (E)-4-(2-chlorophenyl)-2-(2-ethoxyformylbenzylidenehydrazino)thiazole], the IC50 turned out to be 2.34 ± 0.0468 µM.
The same measure, in the same setting: then `CCCOC(=O)c1ccccc1/C=N/Nc1nc(-c2ccccc2Cl)cs1` [Compound A2, (E)-4-(2-chlorophenyl)-2-(2-propoxyformylbenzylidenehydrazino)thiazole], with 1.4 ± 0.0661 µM; and `CC(C)OC(=O)c1ccccc1/C=N/Nc1nc(-c2ccccc2Cl)cs1` [Compound A3, (E)-4-(2-chlorophenyl)-2-(2-isopropoxyformylbenzylidenehydrazino)thiazole], with 1.86 ± 0.0214 µM; and `CCCCOC(=O)c1ccccc1/C=N/Nc1nc(-c2ccccc2Cl)cs1` [Compound A4, (E)-4-(2-chlorophenyl)-2-(2-butoxyformylbenzylidenehydrazino)thiazole], with 3.53 ± 0.148 µM.
`CCC(C)OC(=O)c1ccccc1/C=N/Nc1nc(-c2ccccc2Cl)cs1` (stereo not shown) [Compound A5, (E)-4-(2-chlorophenyl)-2-(2-(2-butoxy)formylbenzylidenehydrazino)thiazole]: the IC50 was 4.651 ± 0.0264 µM.
As to `CCCCCOC(=O)c1ccccc1/C=N/Nc1nc(-c2ccccc2Cl)cs1` [Compound A6, (E)-4-(2-chlorophenyl)-2-(2-pentyloxyformylbenzylidenehydrazino)thiazole], the IC50 was > 50 µM.
Take `CCCCCCOC(=O)c1ccccc1/C=N/Nc1nc(-c2ccccc2Cl)cs1` [Compound A7, (E)-4-(2-chlorophenyl)-2-(2-hexyloxyformylbenzylidenehydrazino)thiazole]: the IC50 was > 50 µM.
For the compound `O=C(OC1CCCCC1)c1ccccc1/C=N/Nc1nc(-c2ccccc2Cl)cs1` [Compound A8, (E)-4-(2-chlorophenyl)-2-(2-cyclohexyloxyformylbenzylidenehydrazino)thiazole], the IC50 is > 50 µM.
For `CC(C)(C)C(=O)OCOC(=O)c1ccccc1/C=N/Nc1nc(-c2ccccc2Cl)cs1` [Compound A9, (Pivaloyloxy)methyl (E)-2-((2-(4-(2-chlorophenyl)thiazol-2-yl)hydrazono)methyl)benzoate], the concentration for half-maximal inhibition (IC50) was > 50 µM.
Regarding `CC(C)OC(=O)OCOC(=O)c1ccccc1/C=N/Nc1nc(-c2ccccc2Cl)cs1` [Compound A10, ((isopropoxycarbonyl)oxy)methyl (E)-2-((2-(4-(2-chlorophenyl)thiazol-2-yl)hydrazono)methyl)benzoate], the IC50 is > 50 µM.
Consider `O=C(OCc1ccccc1)c1ccccc1/C=N/Nc1nc(-c2ccccc2Cl)cs1` [Compound A11, (E)-4-(2-chlorophenyl)-2-(2-benzyloxyformylbenzylidenehydrazino)thiazole], for which the half-maximal inhibitory concentration (IC50) was > 50 µM.
For `CN(C)C(=O)c1ccccc1/C=N/Nc1nc(-c2ccccc2Cl)cs1` [Compound A13, (E)-4-(2-chlorophenyl)-2-((N,N-Dimethyl)formylbenzylidenehydrazino)thiazole], the IC50 is > 50 µM.
`CCOC(=O)c1ccccc1/C=N/N(C)c1nc(-c2ccccc2Cl)cs1` [Compound B1, (E)-4-(2-chlorophenyl)-2-[1-methyl-2-(2-ethoxyformylbenzylidene)hydrazino]thiazole]: the 50% inhibitory concentration (IC50) is 2.79 ± 0.0465 µM.
For `CCCOC(=O)c1ccccc1/C=N/N(C)c1nc(-c2ccccc2Cl)cs1` [Compound B2, (E)-4-(2-chlorophenyl)-2-[1-methyl-2-(2-propoxyformylbenzylidene)hydrazino]thiazole], the half-inhibitory concentration (IC50) stood at 1.96 ± 0.111 µM.
Consider `CCCCOC(=O)c1ccccc1/C=N/N(C)c1nc(-c2ccccc2Cl)cs1` [Compound B4, (E)-4-(2-chlorophenyl)-2-[1-methyl-2-(2-butoxyformylbenzylidene)hydrazino]thiazole], for which the half-inhibitory concentration (IC50) is > 50 µM.

Still in this experiment, the particulars now being: purified DHODH 10 nM, DHO 500 μM, CoQ 100 μM, DCIP 120 μM; read-out: IC50 (μM) hsDHODH.
Turning to `O=C(O)c1c(F)cccc1/C=N/Nc1nc(-c2ccccc2Cl)cs1` [Compound 58, (E)-2-((2-(4-(2-chlorophenyl)thiazol-2-yl)hydrazono)methyl)-6-fluorobenzoic acid], the IC50 worked out at 0.234 ± 0.0068 µM.
